# From patent US6524805B1 (priority 1997, dated 2003)
# “And” between values parts separate entries of the source, which are not always exact repeats. Identical values can stand only once. Like-named read-outs stand apart in the source and are kept apart here.
# Legend:
# mu3 opiate receptor [1] = biological target: T1, mu3 opiate receptor (Homo sapiens, UniProt P35372); assay type: cell-based
# T1 construct: aliquots of membrane suspensions from human granulocytes and lung non-small cell carcinoma; from tissue; host or cells: human granulocytes, human monocytes, normal lung, non-small cell lung carcinoma tissue, vascular tissue
# Protocol: The system was calibrated daily using different concentrations of the nitrosothiol donor S-nitroso-N-acetyl-DL-penicillamine (SNAP; Sigma, St. Louis, Mo.) to generate a standard curve. The concentration of NO gas in solution was measured in real-time with the DUO 18 computer data acquisition system (World Precision Instruments). Each experiment was simultaneously performed with a control (vehicle alone) to exclude experimental drift in NO release unrelated to the administration of compounds.
# [2] = tested on: estrogen surface receptor (ESR1); assay: NO release from ITA fragments and cultured arterial endothelial cells, estrogen compounds; assay type: cell-based, human
# Text: Internal thoracic artery (ITA) segments were obtained from patients undergoing elective coronary artery bypass grafting (CABG) for atherosclerotic coronary artery disease. Patients with chronic illnesses, such as diabetes or cancer as well as acute processes (e.g., known infections, trauma), were excluded.
# Prior to measuring NO release, the cells were exposed to a concentration gradient of the various ligands.
# [3] = tested on: estrogen surface receptor (ESR1); assay: Intracellular calcium (fura-2) in human arterial endothelial cells, estrogen compounds; assay type: cell-based; settings: for effect of prior exposure on 17β-estradiol-induced [Ca^2+]i increase: tamoxifen 1 nM, ICI 182, 780 1 μM
# Protocol: Human arterial endothelial cells were purchased from Cell Systems (Eugene, Oregon) and grown at 37° C., 5% CO2 in chamber slides (Nunc Int.) with CS-C medium (Cell Systems) supplemented with 10% fetal calf serum and endothelial growth factor. Intracellular calcium levels were measured by dual emission microfluorimetry using the fluorescent dye fura-2/AM. Cells were loaded with the fluorescent ion indicator as follows. […] Cells were washed twice with PBS and then test drugs were added. […] Experiments were carried out at room temperature in PBS without calcium/magnesium. Receptor antagonists, when used, were administered 2 minutes prior to the respective agonist.
# Intracellular calcium levels in human arterial endothelial cells were monitored as described herein for the mu3 studies.
# mu3 opiate receptor [4] = biological target: T1, mu3 opiate receptor; assay type: cell-based; remark: listed apart in the source
# mu3 opiate receptor [5] = biological target: T1, mu3 opiate receptor; assay: biochemical; assay type: binding
# Protocol: Binding was studied in human granulocytes, normal lung, and non-small cell lung carcinoma tissue. The separate materials were washed and homogenized in 50 volumes of 0.32 M sucrose (pH 7.4) at 4° C. […] Briefly, aliquots of membrane suspensions from human granulocytes and lung non-small cell carcinoma (less 9% lymphocyte infiltrate) were incubated with non-radioactive compounds at six concentrations for 10 minutes at 22° C. and then with 40 nM of ^3H-dihydromorphine ([^3H]-DHM) for 60 minutes at 4° C. One hundred percent binding is defined as bound [^3H]-DHM in the presence of 10 μM dextrophan minus bound [^3H]-DHM in the presence of 10 μM levorphanol. The IC50 values are defined as the concentration of drug that elicits half-maximal inhibition of specific binding. The mean SEM for three experiments is given.
# T1 sequence (P35372 1-314 isoform P35372-14): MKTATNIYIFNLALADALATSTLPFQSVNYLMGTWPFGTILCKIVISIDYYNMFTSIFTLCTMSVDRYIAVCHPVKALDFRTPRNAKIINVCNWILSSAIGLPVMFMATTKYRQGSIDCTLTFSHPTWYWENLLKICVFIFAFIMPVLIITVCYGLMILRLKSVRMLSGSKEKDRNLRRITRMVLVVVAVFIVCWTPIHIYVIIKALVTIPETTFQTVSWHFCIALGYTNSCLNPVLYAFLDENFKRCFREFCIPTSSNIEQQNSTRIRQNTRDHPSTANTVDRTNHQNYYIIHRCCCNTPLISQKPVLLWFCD
smiles,measurement,setting,value
"COC(=O)[C@@H](N)CCCNC(=N)N[N+](=O)[O-] [L-NAME, N omega-nitro-L-arginine methyl ester]",effect of pretreatment on morphine-induced NO release,mu3 opiate receptor [1]; human granulocytes,inhibited
CC/C(=C(\c1ccccc1)c1ccc(OCCN(C)C)cc1)c1ccccc1 [Tamoxifen],effect of pre-treatment on 17β-estradiol-induced NO release,[2],significantly diminished
same,effect of pre-treatment on E2-BSA-induced NO release,[2],blocked
same,effect of prior exposure on 17β-estradiol-induced [Ca^2+]i increase,[3],blocked
"C[C@@H](NC(=O)[C@@H](N)Cc1ccc(O)cc1)C(=O)NCC(=O)N(C)[C@@H](Cc1ccccc1)C(=O)NCCO [DAMGO, (Tyr-D-Ala^2, Gly-N-Me-Phe^4, Gly(ol)^5)-enkephalin]",effect of pre-treatment on morphine-induced NO release,mu3 opiate receptor [1],prevented
same,effect on NO release (compound alone),mu3 opiate receptor [1],no effect
same,inhibition of morphine-induced NO release,mu3 opiate receptor [1],significantly (P<0.05) inhibited
same,stimulation of endothelial [Ca^2+]i increases,mu3 opiate receptor [4],did not stimulate
"CSCC[C@H](NC(=O)[C@H](Cc1ccccc1)NC(=O)CNC(=O)[C@@H](C)NC(=O)[C@@H](N)Cc1ccc(O)cc1)C(N)=O [DAMA, (D-Ala^2, Met^5)-enkephalinamide]",IC50,"mu3 opiate receptor [5]; GRANULOCYTES membranes, 40 nM [3H]-DHM, mean ± SEM, three experiments, read-out: Displacement of [3H]-DHM IC50",> 1000 nM
same,IC50,"mu3 opiate receptor [5]; LUNG CARCINOMA (non-small cell) membranes, 40 nM [3H]-DHM, mean ± SEM, read-out: Displacement of [3H]-DHM IC50",> 1000 nM
same,IC50,"mu3 opiate receptor [5]; NORMAL LUNG membranes, 40 nM [3H]-DHM, mean ± SEM, read-out: Displacement of [3H]-DHM IC50",> 1000 nM
same,NO release at 4 minutes post morphine exposure,mu3 opiate receptor [1],5.2 ± 1.4 nM
same,effect of pre-treatment on morphine-induced NO release,"mu3 opiate receptor [1]; 1 nM peptide, vascular tissue, human monocytes, human granulocytes",prevented
same,inhibition of morphine-induced NO release,"mu3 opiate receptor [1]; 1 nM peptide, vascular tissue, 4 to 10 minute time points",significantly (P<0.05) inhibited
same,NO release at 4 minutes,"mu3 opiate receptor [1]; vascular tissue, DAMA alone 1 nM",0.0 nM
same,stimulation of intracellular calcium level increases in endothelial cells,mu3 opiate receptor [4]; concentration range 1 pM to 1 μM,did not stimulate
C[C@]12CC[C@@H]3c4ccc(O)cc4CC[C@H]3[C@@H]1CC[C@@H]2O [17β-estradiol],NO release at 10 pM,[2],failed to stimulate a significant increase
same,NO release in Ca-leached endothelial cells,[2],1.8 ± 0.6 nM
same,NO release peak value,[2],16.1 nM
same,concentration of maximal effect on NO release,[2],1 nM
same,peak value of NO release (non-leached comparison),[2],16.0 ± 2.7 nM
same,response of ITA with endothelial lining scraped off,[2],non-responsive
same,time period of NO release,[2],10 min
same,time to peak of NO release,[2],≤ 2 min
same,[Ca^2+]i after leaching of intracellular calcium stores,"[3]; 17β-estradiol 1 nM, 3 hour Ca-free incubation, medium changed six times",3.8±0.6
same,EC50,[3]; stated with the [Ca^2+]i results,0.5 nM
Oc1ccc2c3c1O[C@H]1c4[nH]c5ccccc5c4C[C@@]4(O)[C@@H](C2)N(CC2CC2)CC[C@]314 [Naltrindole],NO release,mu3 opiate receptor [1],12.0 ± 3.4 nM
same,effect on the inhibition of morphine-induced NO release by DAMA,mu3 opiate receptor [1],blocked
"C[C@]12CC[C@@H]3c4ccc(O)cc4C[C@@H](CCCCCCCCC[S+]([O-])CCCC(F)(F)C(F)(F)F)[C@H]3[C@@H]1CC[C@@H]2O (stereo partly shown) [ICI 182, 780]",effect of pre-treatment on 17β-estradiol-induced NO release,"[2]; ITA fragments and cultured arterial endothelial cells, tamoxifen 1 nM, ICI 182,780 1 nM, L-NAME 100 μM, 5 minutes before agonist",failed to inhibit
same,effect of pre-treatment on E2-BSA-induced NO release,"[2]; ITA fragments and cultured arterial endothelial cells, tamoxifen, ICI 182,780 1 nM, L-NAME 100 μM, 5 minutes before agonist",failed to inhibit
same,effect of prior exposure on 17β-estradiol-induced [Ca^2+]i increase,[3],not
"CC(C)C[C@@H](NC(=O)[C@H](Cc1ccccc1)NC(=O)CNC(=O)[C@@H](C)NC(=O)[C@@H](N)Cc1ccc(O)cc1)C(=O)O [DADLE, (D-Ala^2, Leu^5)-enkephalin]",stimulation of intracellular calcium level increases in endothelial cells,mu3 opiate receptor [4],did not stimulate
C[C@]12CC[C@@H]3c4ccc(O)cc4CC[C@H]3[C@@H]1CC[C@H]2O [17α-estradiol],stimulation of NO release,[2],did not stimulate
CN1CC[C@]23c4c5ccc(O)c4O[C@H]2[C@@H](O)CC[C@H]3[C@H]1C5 [Dihydromorphine],IC50,mu3 opiate receptor [5]; Displacement of [3H]-DHM IC50,33 nM and 27 nM and 28.5 nM
